Assay results: the NIST ThermoML archive (doi:10.1016/j.fluid.2013.01.004)
Numbers after ± are expanded uncertainties.

Experiments:
[1] = refractive index (Na D-line) (dimensionless); wn = mass fraction of the nth substance listed; conditions: 323.15 K, 101 kPa, Liquid, Standard Abbe refractometry
[2] = wn = mass fraction of the nth substance listed; conditions: 323.15 K, 101 kPa, Liquid, Pycnometric method

| refractive index ([1]; w1 = 0.5202) | mass density ([2]; w1 = 0.5202) | refractive index ([1]; w1 = 0.338) | mass density ([2]; w1 = 0.338) | SMILES |
| --- | --- | --- | --- | --- |
| 1.462 ± 0.0013 | 1662.2 ± 9.3 kg/m3 |  |  | [Br-].[Br-].[Mg+2] [magnesium bromide (MgBr2)] + O |
|  |  | 1.3982 ± 0.0012 | 1387.2 ± 2.1 kg/m3 | O=S(=O)([O-])[O-].[Mg+2] [magnesium sulfate] + O |
